# Reference: US20240174697A1, “PH-ACTIVABLE FLUORESCENT PROBES FOR TARGETING CELL ORGANELLES” (Purdue Research Foundation, priority 2021, published 2024)
# Columns and labels:
# [1] = Absorption and fluorescence spectra at different pH solutions, pKa; assay type: physicochemical
# Description: Spectrum recorded at room temperature in PBS buffer at varying pH with 1% (v/v) of DMSO, in all cases probe concentration=10 μM.
# Next, we investigated the absorption and fluorescent properties of LysoShine 1, LysoShine 2, and MitoShine (FIG. 2). The LysoShine 1 in different pH solutions of phosphate buffer (1% DMSO in 1M PBS) has an absorption centered around 500 nm and emission maximum at 505 nm with 480 nm excitation. […] We tested the mitochondrial targeting property of MitoShine (max. absorption 505 nm, max. emission 535 nm, excitation 480 nm). […] We also tested the photophysical property of the important synthetic intermediate compound 10 (absorption maximum 505 nm, max, emission 510 nm at excitation 480 nm).
# [2] = Solubility in aqueous medium / pH solutions; assay type: physicochemical; conditions: aqueous medium
SMILES,pH at which high fluorescence is shown ([1]; pH buffer solutions),"fluorescence spectrum in pH buffers ([1]; pH buffers, solubility affected)",solubility in aqueous medium [2]
"CCOC(=O)C1=C(C)C2=C(c3ccc(N(C)C)cc3)c3c(C)c(C(=O)OCC)c(C)n3[B-](F)(F)[N+]2=C1C [Compound 5, Diethyl 10-(4-(dimethylamino)phenyl)-5,5-difluoro-1,3,7,9-tetramethyl-5H-4λ^4, 5λ^4-dipyrrolo[1,2-c:2′,1′-f][1,3,2]diazaborinine-2,8-dicarboxylate]",≤ 2.0,,
"CCOC(=O)C1=C(C)C2=C(c3ccc(N(C)C)cc3)c3c(C)c(C(=O)OCC)c(C=Cc4ccc(O)cc4)n3[B-](F)(F)[N+]2=C1C [Compound 6a, Diethyl (E)-10-(4-(dimethylamino)phenyl)-5,5-difluoro-3-(4-hydroxystyryl)-1,7,9-trimethyl-5H-414,514-dipyrrolo[1,2-c:2′,1′-f][1,3,2]diazaborinine-2,8-dicarboxylate]",,did not generate a fluorescence spectrum,sparingly soluble
